In ChEMBL document CHEMBL1201862, “PubChem BioAssay data set” (2004):
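Test compounds were applied to cells in 96-well plates for 48 hours at 5 doses. At the GI50, growth is halved.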 Activity calls are given as the source filed them. No stated cut-off is given here; in the data, active = GI50 up to about 1.1 µM and inactive = higher.

Tests used:
Assay in all cases: NCI-60 cell line screen, 48 h
786-0 = tested on: 786-0
A498 = tested on: A498
A549 = tested on: A549
ACHN = tested on: ACHN
CAKI-1 = tested on: CAKI-1
CCRF-CEM = tested on: CCRF-CEM
COLO 205 = tested on: COLO 205
DLD-1 = tested on: DLD-1
DMS-114 = tested on: DMS-114
DMS-273 = tested on: DMS-273
EKVX = tested on: EKVX
HCC 2998 = tested on: HCC 2998
HCT-116 = tested on: HCT-116
HCT-15 = tested on: HCT-15
HL-60 = tested on: HL-60
HOP-18 = tested on: HOP-18
HOP-62 = tested on: HOP-62
HOP-92 = tested on: HOP-92
HT-29 = tested on: HT-29
IGROV-1 = tested on: IGROV-1
K562 = tested on: K562
KM-20L2 = tested on: KM-20L2
KM12 = tested on: KM12
LOX IMVI = tested on: LOX IMVI
LXFL 529 = tested on: LXFL 529
M14 = tested on: M14
M19-MEL = tested on: M19-MEL
MOLT-4 = tested on: MOLT-4
Malme-3M = tested on: Malme-3M
NCI-H226 = tested on: NCI-H226
NCI-H23 = tested on: NCI-H23
NCI-H460 = tested on: NCI-H460
NCI-H522 = tested on: NCI-H522
OVCAR-3 = tested on: OVCAR-3
OVCAR-4 = tested on: OVCAR-4
OVCAR-5 = tested on: OVCAR-5
OVCAR-8 = tested on: OVCAR-8
RPMI-8226 = tested on: RPMI-8226
RXF 393 = tested on: RXF 393
RXF 631 = tested on: RXF 631
SF-268 = tested on: SF-268
SF-295 = tested on: SF-295
SF-539 = tested on: SF-539
SK-MEL-28 = tested on: SK-MEL-28
SK-MEL-2 = tested on: SK-MEL-2
SK-MEL-5 = tested on: SK-MEL-5
SN12C = tested on: SN12C
SNB-19 = tested on: SNB-19
SNB-75 = tested on: SNB-75
SNB-78 = tested on: SNB-78
SR = tested on: SR
SW-620 = tested on: SW-620
TK-10 = tested on: TK-10
U-251 = tested on: U-251
UACC-257 = tested on: UACC-257
UACC-62 = tested on: UACC-62
UO-31 = tested on: UO-31
XF498 = tested on: XF498
SK-OV-3 = tested on: SK-OV-3

Cc1c(C(=O)C/C(=N/NC(=O)C[N+](C)(C)C)C(=O)Nc2ccc(Cl)cc2)[n+]([O-])c2ccccc2[n+]1[O-]
GI50 (786-0): > 100 µM (inactive)
GI50 (A498): > 100 µM (inactive)
GI50 (A549): > 100 µM (inactive)
GI50 (ACHN): > 100 µM (inactive)
GI50 (CAKI-1): > 100 µM (inactive)
GI50 (CCRF-CEM): > 100 µM (inactive)
GI50 (COLO 205): > 100 µM (inactive)
GI50 (DLD-1): > 100 µM (inactive)
GI50 (DMS-114): > 100 µM (inactive)
GI50 (DMS-273): > 100 µM (inactive)
GI50 (EKVX): > 100 µM (inactive)
GI50 (HCC 2998): > 100 µM (inactive)
GI50 (HCT-116): > 100 µM (inactive)
GI50 (HCT-15): > 100 µM
GI50 (HL-60): > 100 µM (inactive)
GI50 (HOP-18): > 100 µM (inactive)
GI50 (HOP-62): > 100 µM (inactive)
GI50 (HOP-92): > 100 µM (inactive)
GI50 (HT-29): > 100 µM (inactive)
GI50 (IGROV-1): > 100 µM (inactive)
GI50 (K562): > 100 µM (inactive)
GI50 (KM-20L2): > 100 µM (inactive)
GI50 (KM12): > 100 µM (inactive)
GI50 (LOX IMVI): > 100 µM (inactive)
GI50 (LXFL 529): > 100 µM (inactive)
GI50 (M14): > 100 µM (inactive)
GI50 (M19-MEL): > 100 µM (inactive)
GI50 (MOLT-4): > 100 µM (inactive)
GI50 (Malme-3M): > 100 µM (inactive)
GI50 (NCI-H226): > 100 µM (inactive)
GI50 (NCI-H23): > 100 µM (inactive)
GI50 (NCI-H460): > 100 µM (inactive)
GI50 (NCI-H522): > 100 µM (inactive)
GI50 (OVCAR-3): > 100 µM (inactive)
GI50 (OVCAR-4): > 100 µM (inactive)
GI50 (OVCAR-5): > 100 µM (inactive)
GI50 (OVCAR-8): > 100 µM (inactive)
GI50 (RPMI-8226): > 100 µM (inactive)
GI50 (RXF 393): > 100 µM (inactive)
GI50 (RXF 631): > 100 µM (inactive)
GI50 (SF-268): > 100 µM (inactive)
GI50 (SF-295): > 100 µM (inactive)
GI50 (SF-539): > 100 µM (inactive)
GI50 (SK-MEL-28): > 100 µM (inactive)
GI50 (SK-MEL-2): > 100 µM (inactive)
GI50 (SK-MEL-5): > 100 µM (inactive)
GI50 (SN12C): > 100 µM (inactive)
GI50 (SNB-19): > 100 µM (inactive)
GI50 (SNB-75): > 100 µM (inactive)
GI50 (SNB-78): > 100 µM (inactive)
GI50 (SR): > 100 µM (inactive)
GI50 (SW-620): > 100 µM (inactive)
GI50 (TK-10): > 100 µM (inactive)
GI50 (U-251): > 100 µM (inactive)
GI50 (UACC-257): > 100 µM (inactive)
GI50 (UACC-62): > 100 µM (inactive)
GI50 (UO-31): > 100 µM (inactive)
GI50 (XF498): > 100 µM (inactive)

O=C(O)C1(C(=O)O)CC1
GI50 (786-0): > 100 µM (inactive)
GI50 (A498): > 100 µM (inactive)
GI50 (A549): > 100 µM (inactive)
GI50 (ACHN): > 100 µM (inactive)
GI50 (CAKI-1): > 100 µM (inactive)
GI50 (CCRF-CEM): > 100 µM (inactive)
GI50 (COLO 205): > 100 µM (inactive)
GI50 (DLD-1): > 100 µM (inactive)
GI50 (DMS-114): > 100 µM (inactive)
GI50 (DMS-273): > 100 µM (inactive)
GI50 (EKVX): > 100 µM (inactive)
GI50 (HCC 2998): > 100 µM (inactive)
GI50 (HCT-116): > 100 µM (inactive)
GI50 (HCT-15): > 100 µM
GI50 (HL-60): > 100 µM (inactive)
GI50 (HOP-18): > 100 µM (inactive)
GI50 (HOP-62): > 100 µM (inactive)
GI50 (IGROV-1): > 100 µM (inactive)
GI50 (K562): > 100 µM (inactive)
GI50 (KM-20L2): > 100 µM (inactive)
GI50 (KM12): > 100 µM (inactive)
GI50 (LXFL 529): > 100 µM (inactive)
GI50 (M14): 54.7 µM (inactive)
GI50 (M19-MEL): > 100 µM (inactive)
GI50 (MOLT-4): > 100 µM (inactive)
GI50 (Malme-3M): > 100 µM (inactive)
GI50 (NCI-H23): > 100 µM (inactive)
GI50 (NCI-H460): > 100 µM (inactive)
GI50 (NCI-H522): > 100 µM (inactive)
GI50 (OVCAR-3): > 100 µM (inactive)
GI50 (OVCAR-4): > 100 µM (inactive)
GI50 (OVCAR-8): > 100 µM (inactive)
GI50 (RPMI-8226): > 100 µM (inactive)
GI50 (RXF 393): 40 µM (inactive)
GI50 (RXF 631): > 100 µM (inactive)
GI50 (SF-268): > 100 µM (inactive)
GI50 (SF-295): > 100 µM (inactive)
GI50 (SF-539): > 100 µM (inactive)
GI50 (SK-MEL-28): > 100 µM (inactive)
GI50 (SK-MEL-2): > 100 µM (inactive)
GI50 (SK-MEL-5): > 100 µM (inactive)
GI50 (SK-OV-3): > 100 µM (inactive)
GI50 (SN12C): > 100 µM (inactive)
GI50 (SNB-19): > 100 µM (inactive)
GI50 (SNB-75): > 100 µM (inactive)
GI50 (SNB-78): > 100 µM (inactive)
GI50 (SW-620): > 100 µM (inactive)
GI50 (TK-10): > 100 µM (inactive)
GI50 (U-251): > 100 µM (inactive)
GI50 (UACC-257): > 100 µM (inactive)
GI50 (UACC-62): > 100 µM (inactive)
GI50 (UO-31): > 100 µM (inactive)
GI50 (XF498): > 100 µM (inactive)

Cc1cc(C)cc(-n2c3nc(=O)n(C)c(=O)c-3nc3ccccc32)c1
GI50 (786-0): 81.7 µM (inactive)
GI50 (A498): > 100 µM (inactive)
GI50 (A549): 26.7 µM (inactive)
GI50 (ACHN): 27.4 µM (inactive)
GI50 (CAKI-1): 37.8 µM (inactive)
GI50 (CCRF-CEM): 23.2 µM (inactive)
GI50 (COLO 205): 7.29 µM (inactive)
GI50 (DMS-114): 13.4 µM (inactive)
GI50 (DMS-273): 16.7 µM (inactive)
GI50 (EKVX): 17.7 µM (inactive)
GI50 (HCC 2998): 18.1 µM (inactive)
GI50 (HCT-116): 23.9 µM (inactive)
GI50 (HCT-15): 21 µM
GI50 (HOP-18): > 100 µM (inactive)
GI50 (HOP-62): 45.4 µM (inactive)
GI50 (HT-29): 10.3 µM (inactive)
GI50 (IGROV-1): 36.1 µM (inactive)
GI50 (K562): 22.1 µM (inactive)
GI50 (KM-20L2): 19.4 µM (inactive)
GI50 (KM12): 27.1 µM (inactive)
GI50 (LOX IMVI): 29.3 µM (inactive)
GI50 (LXFL 529): 48.4 µM (inactive)
GI50 (M14): 27 µM (inactive)
GI50 (M19-MEL): 6.07 µM (inactive)
GI50 (MOLT-4): 23 µM (inactive)
GI50 (Malme-3M): 16 µM (inactive)
GI50 (NCI-H226): 34.7 µM (inactive)
GI50 (NCI-H23): 15.7 µM (inactive)
GI50 (NCI-H460): 23.9 µM (inactive)
GI50 (NCI-H522): 17.5 µM (inactive)
GI50 (OVCAR-3): 3.34 µM (inactive)
GI50 (OVCAR-4): 18.5 µM (inactive)
GI50 (OVCAR-5): 39.5 µM (inactive)
GI50 (OVCAR-8): 27.6 µM (inactive)
GI50 (RPMI-8226): 29.7 µM (inactive)
GI50 (RXF 393): > 100 µM (inactive)
GI50 (RXF 631): 22.5 µM (inactive)
GI50 (SF-268): 65.6 µM (inactive)
GI50 (SF-295): 36 µM (inactive)
GI50 (SF-539): 21.4 µM (inactive)
GI50 (SK-MEL-2): 22.9 µM (inactive)
GI50 (SK-MEL-5): 15.8 µM (inactive)
GI50 (SK-OV-3): > 100 µM (inactive)
GI50 (SN12C): 26.8 µM (inactive)
GI50 (SNB-19): 22.1 µM (inactive)
GI50 (SNB-75): 34.9 µM (inactive)
GI50 (SNB-78): 35.6 µM (inactive)
GI50 (SW-620): 17 µM (inactive)
GI50 (TK-10): 42.3 µM (inactive)
GI50 (U-251): 21.8 µM (inactive)
GI50 (UACC-257): 15.3 µM (inactive)
GI50 (UACC-62): 16.7 µM (inactive)
GI50 (UO-31): 64.1 µM (inactive)
GI50 (XF498): 36.3 µM (inactive)
